Assay [1] has as its target ERK1 (Homo sapiens, UniProt P27361). Briefly: Kinase assay (Caliper, FAM-labeled peptide), ERK1. The class given is biochemical. The essentials: (§1)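 Kinase preincubated 10 min at room temperature with serially diluted compound before FAM-labeled peptide plus ATP added; reaction run at 28 °C, then stopped. Substrate conversion read by Caliper mobility shift, normalized to DMSO and low controls, curve-fitted for IC50.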

For assay [2], the system named is HCT 116 cells. Briefly: Cell proliferation assay (HCT 116), Cell-titer Glo. The class given is cell-based. The note with it: Homo sapiens, 120 h incubation. The protocol:
(§2) The HCT 116 cells were paved in a 96-well plate at 1200 cells, 160 μL/well. After incubating overnight, the compound solutions of gradient concentration was prepared, and 40 μL of DMSO solution of the test compound of each concentration was added to the cells of each well. The final concentration of the compound was 30000, 10000, 3333.3, 1111.1, 370.4, 123.5, 41.2, 13.7, 4.6, 0 nM (the final concentration of DMSO was 0.5%). 5% CO2 was incubated for 120 h at 37° C. 50 μL of Cell-titer Glo working solution was added to each well, shaked and mixed, and incubated at room temperature for 10 minutes. The multi-functional microplate reader read the luminescence value, and converted the luminescence value reading into inhibition percentage. Inhibition percentage=(maximum value−reading)/(maximum value−minimum value)*100.
The “maximum value” was the DMSO control, the “minimum value” indicated the cell-free control group.
(§3) Graphpad Prism software was used to perform curve fitting and obtain IC50 value.

For assay [3], the system named is COLO205 cells. Kind of assay: Cell proliferation assay (COLO205), Cell-titer Glo. In kind it is cell-based. The note with it: Homo sapiens, COLO 205, 120 h incubation. The method, then: as §2, with “COLO205” for “The HCT 116”, “spread into” for “paved in”, “135 μL/well at 2000 cells.” for “1200 cells, 160 μL/well.”, “overnight,” for “overnight, the”, “added 15” for “40”, “concentration” for “concentration was added”
The “maximum value” was the DMSO control, the “minimum value” indicates the cell-free control group.
as §3

For assay [4], the target named is ERK2 (Homo sapiens, UniProt P28482). Kind of assay: Kinase assay (Caliper, FAM-labeled peptide), ERK2. In kind it is biochemical. The method, boiled down: as §1
Sequence of ERK2 (P28482 whole entry): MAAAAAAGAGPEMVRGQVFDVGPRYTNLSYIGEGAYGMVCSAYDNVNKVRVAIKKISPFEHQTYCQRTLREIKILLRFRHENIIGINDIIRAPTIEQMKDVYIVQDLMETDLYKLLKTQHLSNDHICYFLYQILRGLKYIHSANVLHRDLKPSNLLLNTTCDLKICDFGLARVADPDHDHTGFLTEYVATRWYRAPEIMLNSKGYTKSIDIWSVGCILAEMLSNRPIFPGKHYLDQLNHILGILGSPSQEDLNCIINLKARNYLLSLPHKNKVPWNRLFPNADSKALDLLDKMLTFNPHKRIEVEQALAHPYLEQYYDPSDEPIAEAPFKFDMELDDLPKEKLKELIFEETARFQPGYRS

Sequence of ERK1 (P27361 whole entry): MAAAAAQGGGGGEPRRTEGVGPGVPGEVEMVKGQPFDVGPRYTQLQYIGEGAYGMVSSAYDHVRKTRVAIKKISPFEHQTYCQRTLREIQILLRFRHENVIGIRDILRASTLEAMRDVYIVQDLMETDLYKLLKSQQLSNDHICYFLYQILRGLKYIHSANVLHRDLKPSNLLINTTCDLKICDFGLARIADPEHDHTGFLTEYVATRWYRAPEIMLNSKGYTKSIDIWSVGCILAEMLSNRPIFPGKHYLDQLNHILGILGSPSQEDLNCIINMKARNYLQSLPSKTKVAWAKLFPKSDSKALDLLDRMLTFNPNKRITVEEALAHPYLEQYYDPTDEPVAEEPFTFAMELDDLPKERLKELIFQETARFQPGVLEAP

Take `CC(C)Nc1cc(-c2cc3n(c2)CC(CO)(CO)CN(Cc2cc(F)ccc2CO)C3=O)c(Cl)cn1` [Example 29, 8-(5-chloro-2-(isopropylamino)pyridin-4-yl)-2-(5-fluoro-2-(hydroxymethyl)benzyl)-4,4-bis (hydroxymethyl)-2,3,4,5-tetrahydro-1h-pyrrolo[1,2-a][1,4] diazepine-1-one]: the IC50 in assay [1] was found to be 0.68 nM; in assay [2], 6.3 nM; in assay [3], 7.6 nM; in assay [4], 0.83 nM.

Take `COC[C@H]1Cn2cc(-c3nc(Nc4ccnn4C)ncc3C)cc2C(=O)N1Cc1cc(F)ccc1CO` [Example 35, (R)-2-(5-fluoro-2-(hydroxymethyl)benzyl)-3-(methoxymethyl)-7-(5-methyl-2-((1-methyl-1H-pyrazol-5-yl)amino)pyrimidin-4-yl)-3,4-dihydropyrrolo[1,2-a]pyrazine-1(2H)-one]: the IC50 in assay [1] came to 0.84 nM; in assay [2], 10.4 nM; in assay [3], 16.6 nM; in assay [4], 0.48 nM.

As to `COC[C@H]1Cn2cc(-c3cc(Nc4ccnn4C)ncc3Cl)cc2C(=O)N1Cc1cc(F)ccc1CO` [Example 45, (R)-7-(5-chloro-2-((1-methyl-1H-pyrazol-5-yl)amino)pyridin-4-yl)-2-(5-fluoro-2-(hydroxymethyl)benzyl)-3-(methoxymethyl)-3,4-dihydropyrrolo[1,2-a]pyrazine-1(2H)-one], the half-inhibitory concentration (IC50) in assay [1] was determined as 0.9 nM; in assay [2] it was 6.2 nM; in assay [3] it was 3.3 nM; in assay [4] it was 1.2 nM.

Take `Cn1nccc1Nc1cc(-c2cc3n(c2)CCN(Cc2cc(F)ccc2CO)C3=O)c(Cl)cn1` [Example 50, 7-(5-Chloro-2-((1-methyl-1H-pyrazol-5-yl)amino)pyridin-4-yl)-2-(5-fluoro-2-(hydroxymethyl)benzyl)-3,4-dihydropyrrolo[1,2-a]pyrazine-1(2H)-one]: the half-inhibitory concentration (IC50) in assay [1] turned out to be 0.72 nM; in assay [2] it was 6.5 nM; in assay [3], 11.3 nM; in assay [4], 0.89 nM.

For the compound `COC[C@H]1Cn2cc(-c3cc(NC4CCOCC4)ncc3Cl)cc2C(=O)N1Cc1cc(F)ccc1CO` [Example 62, (R)-7-(5-chloro-2-((tetrahydro-2h-pyran-4-yl)amino)pyridine-4-yl)-2-(5-fluoro-2-(hydroxymethyl)benzyl)-3-(methoxymethyl)-3,4-dihydropyrrolo[1,2-a] pyrazine-1(2H)-one], the IC50 in assay [1] was 0.93 nM; in assay [2] it was 7.99 nM; in assay [3] it was 17.5 nM; in assay [4], 0.39 nM.

In the case of `COC[C@H]1Cn2cc(-c3cc(Nc4ccnn4C)ncc3Cl)cc2C(=O)N1Cc1cc(F)c(F)cc1CO` [Example 95, (R)-7-(5-chloro-2-((1-methyl-1h-pyrazole-5-yl)amino)pyridine-4-yl)-2-(4,5-difluoro-2-(hydroxymethyl)benzyl)-3-(methoxymethyl)-3,4-dihydropyrrolo[1,2-a] pyrazine-1(2H)-one], the 50% inhibitory concentration (IC50) in assay [2] is 6.9 nM; in assay [3], 6.9 nM; in assay [4], 0.9 nM.

On to `O=C1c2cc(-c3cc(NC4CCOCC4)ncc3Cl)cn2CCN1Cc1cc(F)ccc1CO` [Example 126, 7-(5-chloro-2-((tetrahydro-2h-pyran-4-yl)amino)pyridine-4-yl)-2-(5-fluoro-2-(hydroxymethyl)benzyl)-3,4-dihydropyrrolo[1,2-a] pyrazine-1(2H)-one], for which the IC50 in assay [1] is 0.57 nM; in assay [2], 14.3 nM; in assay [3], 30.3 nM; in assay [4] it was 0.32 nM.

On to `COC[C@H]1Cn2cc(-c3nc(NC4CCOCC4)ncc3Cl)cc2C(=O)N1Cc1cc(F)ccc1CO` [Example 130, (R)-7-(5-chloro-2-((tetrahydro-2h-pyran-4-yl)amino)pyrimidin-4-yl)-2-(5-fluoro-2-(hydroxymethyl)benzyl)-3-(methoxymethyl)-3.4-dihydropyrrolo[1,2-a] pyrazine-1(2H)-one], for which the results for the IC50 in assay [2] and in assay [3] were 5.3 nM and 20.4 nM, respectively.

Turning to `Cn1nccc1Nc1cc(-c2cc3n(c2)CCN(Cc2cc(F)cc(F)c2CO)C3=O)c(Cl)cn1` [Example 148, 7-(5-chloro-2-((1-methyl-1h-pyrazole-5-yl)amino)pyridine-4-yl)-2-(3,5-difluoro-2-(hydroxymethyl)benzyl)-3,4-dihydropyrrolo[1,2-a] pyrazine-1(2H)-one], the IC50 came out at 6.3 nM in assay [2], 12.9 nM in assay [3] and 0.7 nM in assay [4].

As for `Cn1nccc1Nc1cc(-c2cc3n(c2)CCN(Cc2cccc(F)c2CO)C3=O)c(Cl)cn1` [Example 150, 7-(5-chloro-2-((1-methyl-1h-pyrazole-5-yl)amino)pyridine-4-yl)-2-(3-fluoro-2-(hydroxymethyl)benzyl)-3,4-dihydropyrrolo[1,2-a] pyrazine-1(2H)-one], the IC50 in assay [2] was found to be 9.5 nM; in assay [3], 17.8 nM.

With `Cc1cnc(Nc2ccnn2C)cc1-c1cc2n(c1)CCN(Cc1cc(F)ccc1CO)C2=O` [Example 152, 2-(5-fluoro-2-(hydroxymethyl)benzyl)-7-(5-methyl-2-((1-methyl-1h-pyrazole-5-yl)amino)pyridine-4-yl)-3,4-dihydropyrrolo[1,2-a] pyrazine-1(2H)-one], the IC50 in assay [2] amounted to 7.6 nM; in assay [3], 14.3 nM; in assay [4], 0.3 nM.

For `Cn1nccc1Nc1cc(-c2cc3n(c2)CCN(Cc2cc(F)c(F)cc2CO)C3=O)c(Cl)cn1` [Example 160, 7-(5-chloro-2-((1-methyl-1h-pyrazole-5-yl)amino)pyridine-4-yl)-2-(4,5-difluoro-2-(hydroxymethyl)benzyl)-3,4-dihydropyrrolo[1,2-a] pyrazine-1(2H)-one], the IC50 in assay [2] was found to be 10.7 nM; in assay [3], 11.4 nM; in assay [4] it was 0.89 nM.

`COC[C@H]1Cn2cc(-c3nc(Nc4ccnn4C)ncc3C(F)(F)F)cc2C(=O)N1Cc1cc(F)ccc1CO` [Example 163, (R)-2-(5-fluoro-2-(hydroxymethyl)benzyl)-3-(methoxymethyl)-7-(2-((1-methyl-1h-pyrazole-5-yl)amino)-5-(trifluoromethyl)pyrimidin-4-yl)-3,4-dihydropyrrolo[1,2-a] pyrazine-1(2H)-one]: the IC50 in assay [2] stood at 18.8 nM; in assay [3] it was 15.4 nM; in assay [4], 0.62 nM.

Take `COC[C@H]1Cn2cc(-c3cc(Nc4ccnn4C)ncc3Cl)cc2C(=O)N1Cc1cc(F)c(F)c(F)c1CO` [Example 168, (R)-7-(5-chloro-2-((1-methyl-1h-pyrazole-5-yl)amino)pyridine-4-yl)-3-(methoxymethyl)-2-(3,4,5-fluoro-2-(hydroxymethyl)benzyl)-3,4-dihydropyrrolo[1,2-a] pyrazine-1(2H)-one]: the 50% inhibitory concentration (IC50) in assay [2] came out at 8.4 nM; in assay [3], 11 nM; in assay [4], 0.59 nM.
